Key:
GCGR = GCGR (Homo sapiens, UniProt P47871); experiment: I125-glucagon binding assay (competition, GCGR membrane fractions); parameters: expressed in transfected cells; host or cells: CHO-K1; conditions: for IC50: competition with I125-glucagon 0.0625 nM, membrane fractions from GCGR overexpressed CHO-K1 cells
Procedure: I^125-Glucagon Binding Assay
The binding affinity of each compound was evaluated by a competition assay with I^125-glucagon. GCGR membrane fractions were obtained from GCGR overexpressed CHO-K1 cells as a stock of 1 mg/ml concentration. To evaluate the IC50 of compounds binding to GCGR, GCGR membrane fractions were treated with compounds with a serial dilution. The membrane fractions were diluted to 7.5 microgram per well in 70 microliter assay buffer contained 50 mM Tris pH 7.4 and 0.5% (w/v) bovine serum albumin and added into 96 wells plate. The membrane fractions were then mixed with 10 microliter diluted compounds. After 5 minutes pre-incubation, 20 microliter I^125 labeled glucagon (Perkin Elmer) was added into each well at the final concentration of 0.0625 nM. The assay mixtures were incubated at 25° C. for 30 minutes and then transferred onto the Millipore Multiscreen GF/B Plate coated with 0.5% (w/v) Polyethyleneimine. The filter plate was washed with wash buffer contained 50 mM Tris pH 7.4 for 2 times, 300 microliter each time. The residual isotope was detected by Hidex CHAMELEON V micro-beta counter and the IC50 value of each compound binding to GCGR was calculated with non-linear regression.

glucagon receptor (GCGR) = biological target: T1, glucagon receptor (GCGR) (Homo sapiens, UniProt P47871); experiment: Glucagon cAMP inhibition assay (Cisbio cAMP Dynamic 2 HTRF); format: cell-based; conditions: GCGR overexpressed CHO-K1 cells or human primary hepatocytes (not specified); glucagon at EC50
T1 construct: expressed in transfected cells; host or cells: CHO-K1
Procedure: Glucagon eAMP Inhibition Assay
Downstream secondary messenger eAMP induced by glucagon was detected by Cisbio cAMP Dynamic 2 kit. Testing compounds were each prepared as a dimethyl sulfoxide (DMSO) solution at the concentration of 10 mM. To evaluate the potency of compounds in inhibiting the cAMP production, glucagon receptor (GCGR) overexpressed CHO-K1 cells or human primary hepatocytes were treated with compounds with a serial dilution. The cells were re-suspended in Hank's Balanced Salt solution (HBSS) contained 0.1% (w/v) bovine serum albumin and 800 nM 3-isobutyl-1-methylxanthine (IBMX) and seeded into low volume, 384 wells white plate. The diluted compounds were then added into the plate for 30 minutes pre-incubation where the final DMSO concentration was 1%. The cells were stimulated with glucagon at the concentration equaled to EC50 (an indicium of the concentration of a drag that gives half-maximal response) for 30 minutes at room temperature. After incubation, lysis buffer contain cAMP antibody and fluorescence acceptor were added into each well for additional 60 minutes incubation. Results were recorded by Molecular Devices SpectraMax Paradigm with the HTRF Detection Cartridges and the IC50 value of each compound in inhibiting the cAMP production was calculated with non-linear regression based on the amount of cAMP production.

T1 sequence (P47871 26-477, species assumed): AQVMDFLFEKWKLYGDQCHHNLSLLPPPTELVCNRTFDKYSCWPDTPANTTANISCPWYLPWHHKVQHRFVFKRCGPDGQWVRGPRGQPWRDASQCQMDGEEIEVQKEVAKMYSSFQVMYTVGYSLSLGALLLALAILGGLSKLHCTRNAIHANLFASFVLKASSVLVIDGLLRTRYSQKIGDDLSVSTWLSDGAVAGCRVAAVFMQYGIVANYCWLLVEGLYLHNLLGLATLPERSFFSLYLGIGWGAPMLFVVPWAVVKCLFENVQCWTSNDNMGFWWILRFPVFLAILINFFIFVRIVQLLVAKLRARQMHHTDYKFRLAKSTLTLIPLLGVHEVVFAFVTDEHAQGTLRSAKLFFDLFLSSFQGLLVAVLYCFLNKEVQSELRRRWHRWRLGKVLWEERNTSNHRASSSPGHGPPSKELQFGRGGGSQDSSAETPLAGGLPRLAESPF
GCGR, sequence (P47871 26-477, species assumed): as above

SMILES	IC50 (GCGR)	IC50 (glucagon receptor (GCGR))	inhibition at 30 µM (GCGR; compound at 30 μM, read-out: percentage of inhibition (number in parenthesis in IC50 binding column))
CCOC(=O)CCNC(=O)c1ccc(N[C@@H](c2ccc(-c3noc(-c4ccccc4)n3)cc2)C(C)CC)cc1 (stereo partly drawn) [Compound 2-20, ethyl 3-(4-(((1R)-2-methyl-1-(4-(5-phenyl-1,2,4-oxadiazol-3-yl)phenyl)butyl)amino)benzamido)propanoate]	217 nM	338 nM	
CCOC(=O)CCNC(=O)c1ccc(C(Oc2ccc(-c3nc4ccccc4o3)cc2)C(C)C)cc1 (stereo not shown) [Compound 7-1, Ethyl 3-(4-(1-(4-(benzo[d]oxazol-2-yl)phenoxy)-2-methylpropyl)benzamido)propanoate]	> 30000 nM	487 nM	
CC(C)[C@@H](Nc1ccc(C(=O)NCCC(=O)O)cc1)c1ccc(-c2nnc(C(F)(F)F)o2)cc1 [Compound 1-58, (R)-3-(4-((2-methyl-1-(4-(5-(trifluoromethyl)-1,3,4-oxadiazol-2-yl)phenyl)propyl)amino)benzamido)propanoic acid]	875 nM	> 30000 nM	
CCCC[C@H](Nc1ccc(C(=O)NCCC(=O)O)cc1)c1ccc(-c2noc(-c3ccccn3)n2)cc1 [Compound 2-38, (S)-3-(4-((1-(4-(5-(pyridin-2-yl)-1,2,4-oxadiazol-3-yl)phenyl)pentyl)amino)benzamido)propanoic acid]	226 nM	686 nM	
CCCC[C@@H](Nc1ccc(C(=O)NCCC(=O)OCC)cc1)c1ccc(-c2nc3ccccc3o2)cc1 [Compound 4-9, ethyl (R)-3-(4-((1-(4-(benzo[d]oxazol-2-yl)phenyl)pentyl)amino)benzamido)propanoate]	602 nM	186 nM	
CCCC[C@@H](Nc1ccc(C(=O)NCCC(=O)O)cc1)c1ccc(-c2nnc(C(F)(F)F)o2)cc1 [Compound 1-54, (R)-3-(4-((1-(4-(5-(trifluoromethyl)-1,3,4-oxadiazol-2-yl)phenyl)pentyl)amino)benzamido)propanoic acid]	3070 nM	3670 nM	
CC(C)[C@H](Nc1ccc(C(=O)NCCS(=O)(=O)O)cc1)c1ccc(-c2nnc(-c3ccccc3)o2)cc1 [Compound 1-64, (S)-2-(4-((2-methyl-1-(4-(5-phenyl-1,3,4-oxadiazol-2-yl)phenyl)propyl)amino)benzamido)ethane-1-sulfonic acid]	101 nM	> 30000 nM	
CCOC(=O)CCNC(=O)c1ccc(NC(c2ccc(-c3nnc(-c4ccccc4)o3)cc2)C(C)C)cc1 (stereo not shown) [Compound 1-3, Ethyl 3-(4-((2-methyl-1-(4-(5-phenyl-1,3,4-oxadiazol-2-yl)phenyl)propyl)amino)benzamido)propanoate]	1870 nM	55 nM	43%
CC(C)C(Nc1ccc(-c2noc(-c3ccccc3)n2)cc1)c1ccc(C(=O)NCCC(=O)O)cc1 (stereo not shown) [Compound 3-11, 3-(4-(2-methyl-1-((4-(5-phenyl-1,2,4-oxadiazol-3-yl)phenyl)amino)propyl)benzamido)propanoic acid]	318 nM	717 nM	
CCOC(=O)CCNC(=O)c1ccc(N[C@@H](CC(C)C)c2ccc(-c3nnc(-c4ccccc4)o3)cc2)cc1 [Compound 1-59, ethyl (S)-3-(4-((3-methyl-1-(4-(5-phenyl-1,3,4-oxadiazol-2-yl)phenyl)butyl)amino)benzamido)propanoate]	> 30000 nM	26 nM	
CCCC[C@@H](Nc1ccc(C(=O)NCCC(=O)OCC)cc1)c1ccc(-c2noc(C(F)(F)F)n2)cc1 [Compound 2-46, ethyl (R)-3-(4-((1-(4-(5-(trifluoromethyl)-1,2,4-oxadiazol-3-yl)phenyl)pentyl)amino)benzamido)propanoate]	> 30000 nM	2880 nM	
CCCC(Nc1ccc(C(=O)NCCC(=O)OCC)cc1)c1ccc(-c2nnc(-c3ccccc3)o2)cc1 (stereo not shown) [Compound 1-6, Ethyl 3-(4-((1-(4-(5-phenyl-1,3,4-oxadiazol-2-yl)phenyl)butyl)amino)benzamido)propanoate]	2610 nM	31 nM	
CCC(C)C(Nc1ccc(C(=O)NCCC(=O)O)cc1)c1ccc(-c2nnc(-c3ccccc3)o2)cc1 (stereo not shown) [Compound 1-11, 3-(4-((2-Methyl-1-(4-(5-phenyl-1,3,4-oxadiazol-2-yl)phenyl)butyl)amino)benzamido)propanoic acid]	72 nM	2540 nM	
CCOC(=O)CCNC(=O)c1ccc(C(Nc2ccc(-c3nnc(-c4ccc(F)cc4)o3)cc2)C(C)C)cc1 (stereo not shown) [Compound 3-9, ethyl 3-(4-(1-((4-(5-(4-fluorophenyl)-1,3,4-oxadiazol-2-yl)phenyl)amino)-2-methylpropyl)benzamido)propanoate]	> 30000 nM	442 nM	
CCOC(=O)CCNC(=O)c1ccc(N[C@@H](c2ccc(-c3nnc(C(F)(F)F)o3)cc2)C(C)C)cc1 [Compound 1-56, ethyl (R)-3-(4-((2-methyl-1-(4-(5-(trifluoromethyl)-1,3,4-oxadiazol-2-yl)phenyl)propyl)amino)benzamido)propanoate]	> 30000 nM	164 nM	
CCC(C)C(Nc1ccc(C(=O)NCCC(=O)O)cc1)c1ccc(-c2nnc(C(F)(F)F)o2)cc1 (stereo not shown) [Compound 1-32]	885 nM	3480 nM	
CCOC(=O)CCNC(=O)c1ccc(NC(c2ccc(-c3nc4ccccc4o3)cc2)C(C)C)cc1 (stereo not shown) [Compound 4-1, ethyl 3-(4-((1-(4-(benzo[d]oxazol-2-yl)phenyl)-2-methylpropyl)amino)benzamido)propanoate]	968 nM	95.7 nM	
CC(C)C[C@@H](Nc1ccc(C(=O)NCCC(=O)O)cc1)c1ccc(-c2nc3ccccc3o2)cc1 [Compound 4-14, (R)-3-(4-((1-(4-(benzo[d]oxazol-2-yl)phenyl)-3-methylbutyl)amino)benzamido)propanoic acid]	112 nM	917 nM	
CCCC[C@H](Nc1ccc(C(=O)NCCC(=O)O)cc1)c1ccc(-c2nnc(-c3ccccn3)o2)cc1 [Compound 1-45, (S)-3-(4-((1-(4-(5-(pyridin-2-yl)-1,3,4-oxadiazol-2yl)phenyl)pentyl)amino)benzamido)propanoic acid]	339 nM	2540 nM	
CC(C)C(Oc1ccc(-c2nc3ccccc3o2)cc1)c1ccc(C(=O)NCCC(=O)O)cc1 (stereo not shown) [Compound 7-2, 3-(4-(1-(4-(Benzo[d]oxazol-2-yl)phenoxy)-2-methylpropyl)benzamido)propanoic acid]	177 nM	292 nM	
CCCCC(Nc1ccc(C(=O)NCCC(=O)O)cc1)c1ccc(-c2noc(C(C)(C)C)n2)cc1 (stereo not shown) [Compound 2-4, 3-(4-((1-(4-(5-(tert-butyl)-1,2,4-oxadiazol-3-yl)phenyl)pentyl)amino)benzamido)propanoic acid]	164 nM	329 nM	
CCCCC(Nc1ccc(-c2nnc(-c3ccccc3)o2)cc1)c1ccc(C(=O)NCCC(=O)OCC)cc1 (stereo not shown) [Compound 3-3, ethyl 3-(4-(1-((4-(5-phenyl-1,3,4-oxadiazol-2-yl)phenyl)amino)pentyl)benzamido)propanoate]	1320 nM	933 nM	
CCCCC(Nc1ccc(C(=O)NCCC(=O)O)cc1)c1ccc(-c2nc3ccccc3o2)cc1 (stereo not shown) [Compound 4-4, 3-(4-((1-(4-(benzo[d]oxazol-2-yl)phenyl)pentyl)amino)benzamido)propanoic acid]	101 nM	1080 nM	
CCCC(Nc1ccc(C(=O)NCCC(=O)O)cc1)c1ccc(-c2nnc(-c3ccccc3)o2)cc1 (stereo not shown) [Compound 1-7]	211 nM	3330 nM	
